Experimental data as given in patent US20260176320A1, “MODULATORS OF G-PROTEIN COUPLED RECEPTORS” (priority 2018, published 2026).
Read-outs that look alike come from different tables or passages of the source.

Columns and labels:
GLP-1R = GLP-1R (Homo sapiens, UniProt P43220); assay: HitHunter cAMP assay (GLP-1R); assay type: cell-based; conditions: cAMP; for Emax: read-out: (Emax) GLP-1R; for EC50: read-out: EC50 GLP-1R/nM
Procedure, shortened: (§1)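 Suspension cells expressing each receptor (10,000 per well) in HBSS with 10 mM HEPES, 625 μM IBMX and 0.2% BSA were treated with a 22-point 2-fold agonist series in duplicate for 30 minutes at room temperature. cAMP was detected by antibody immunocompetition with luminescence read after overnight incubation.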

GIP-R = target: T1, GIP-R (Homo sapiens, UniProt P48546); assay: HitHunter cAMP assay (GIP-R); assay type: cell-based; conditions: cAMP; for Emax: read-out: (Emax) GIP-R; for EC50: read-out: EC50 GIP-R/nM
T1 sequence (P48546 22-466): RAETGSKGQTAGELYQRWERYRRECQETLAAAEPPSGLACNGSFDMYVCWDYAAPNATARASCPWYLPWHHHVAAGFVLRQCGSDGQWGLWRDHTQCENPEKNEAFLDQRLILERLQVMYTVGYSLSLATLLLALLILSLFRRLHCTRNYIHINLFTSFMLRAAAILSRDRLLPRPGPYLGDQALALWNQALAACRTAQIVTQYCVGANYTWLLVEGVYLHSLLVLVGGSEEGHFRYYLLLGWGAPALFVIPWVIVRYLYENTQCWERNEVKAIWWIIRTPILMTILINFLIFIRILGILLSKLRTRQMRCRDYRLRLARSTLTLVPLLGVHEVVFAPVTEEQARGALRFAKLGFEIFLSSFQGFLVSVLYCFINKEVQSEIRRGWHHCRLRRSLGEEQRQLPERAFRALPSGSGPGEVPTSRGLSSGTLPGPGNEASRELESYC
Procedure, shortened: as §1

Sequence of GLP-1R (P43220 24-463): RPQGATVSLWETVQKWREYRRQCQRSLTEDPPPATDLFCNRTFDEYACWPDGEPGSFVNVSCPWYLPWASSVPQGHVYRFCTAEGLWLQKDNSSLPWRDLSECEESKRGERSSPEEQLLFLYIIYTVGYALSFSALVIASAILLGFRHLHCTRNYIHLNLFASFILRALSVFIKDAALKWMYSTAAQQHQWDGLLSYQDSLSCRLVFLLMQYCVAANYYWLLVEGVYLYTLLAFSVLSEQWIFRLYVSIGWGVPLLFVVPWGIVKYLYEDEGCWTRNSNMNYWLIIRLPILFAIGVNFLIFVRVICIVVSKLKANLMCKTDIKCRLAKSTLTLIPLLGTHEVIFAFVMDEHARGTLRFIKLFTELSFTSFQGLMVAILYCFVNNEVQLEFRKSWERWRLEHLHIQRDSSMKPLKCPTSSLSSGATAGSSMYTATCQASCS

SMILES | Emax (GLP-1R; Table 3) | EC50 (GLP-1R; Table 3) | Emax (GLP-1R; Table 3A) | EC50 (GLP-1R; Table 3A) | Emax (GIP-R; Table 3) | EC50 (GIP-R; Table 3) | Emax (GIP-R; Table 3A) | EC50 (GIP-R; Table 3A) | Emax at 1 µM (GIP-R; read-out: (Emax) GIP-R at 1 μM, Table 3, at 1 μM)
CCCCCCCCCCCCCCCC(=O)N[C@@H](CCC(=O)NCCCC[C@H](NC(=O)[C@H](CO)NC(=O)[C@@H]1CCCN1C(=O)[C@@H]1CCCN1C(=O)[C@@H]1CCCN1C(=O)[C@H](C)NC(=O)CNC(=O)[C@H](CO)NC(=O)[C@H](CO)NC(=O)[C@@H]1CCCN1C(=O)CNC(=O)CNC(=O)[C@H](C)NC(=O)[C@H](CC(C)C)NC(=O)[C@H](CC(C)C)NC(=O)[C@H](Cc1c[nH]c2ccccc12)NC(=O)[C@H](CC(N)=O)NC(=O)[C@@H](NC(=O)[C@H](Cc1ccccc1)NC(=O)[C@H](CCC(=O)O)NC(=O)C(C)(C)NC(=O)[C@H](C)NC(=O)[C@H](C)NC(=O)[C@H](CCC(N)=O)NC(=O)[C@H](CCCCN)NC(=O)[C@H](CC(=O)O)NC(=O)[C@H](CC(C)C)NC(=O)[C@H](Cc1ccc(O)cc1)NC(=O)[C@@H](NC(=O)[C@H](CO)NC(=O)[C@H](Cc1ccc(O)cc1)NC(=O)[C@H](CC(=O)O)NC(=O)[C@H](CO)NC(=O)[C@@H](NC(=O)[C@H](Cc1ccccc1)NC(=O)[C@@H](NC(=O)CNC(=O)[C@H](CCC(=O)O)NC(=O)CSCC(=O)NCCN1C[C@H](O)CC1=O)[C@@H](C)O)[C@@H](C)O)[C@@H](C)CC)C(C)C)C(N)=O)C(=O)O [Compound 50] | 103% | 0.1 to 1 nM | 103% | 0.1 to 1 nM | 26% | 1 to 10 nM | 26% | 10 to 100 nM | –
CCCCCCCCCCCCCCCC(=O)N[C@@H](CCC(=O)NCCCC[C@H](NC(=O)[C@H](CO)NC(=O)[C@@H]1CCCN1C(=O)[C@@H]1CCCN1C(=O)[C@@H]1CCCN1C(=O)[C@H](C)NC(=O)CNC(=O)[C@H](CO)NC(=O)[C@H](CO)NC(=O)[C@@H]1CCCN1C(=O)CNC(=O)CNC(=O)[C@H](C)NC(=O)[C@H](CC(C)C)NC(=O)[C@H](CC(C)C)NC(=O)[C@H](Cc1c[nH]c2ccccc12)NC(=O)[C@H](CC(N)=O)NC(=O)[C@@H](NC(=O)[C@H](Cc1ccccc1)NC(=O)[C@H](CCC(=O)O)NC(=O)C(C)(C)NC(=O)[C@H](C)NC(=O)[C@H](C)NC(=O)[C@H](CCC(N)=O)NC(=O)[C@H](CCCCN)NC(=O)[C@H](CC(=O)O)NC(=O)[C@H](CC(C)C)NC(=O)[C@H](Cc1ccc(O)cc1)NC(=O)[C@@H](NC(=O)[C@H](CO)NC(=O)[C@H](Cc1ccc(O)cc1)NC(=O)[C@H](CC(=O)O)NC(=O)[C@H](CO)NC(=O)[C@@H](NC(=O)[C@H](Cc1ccccc1)NC(=O)[C@@H](NC(=O)CNC(=O)[C@H](CCC(=O)O)NC(=O)CCCNC(=O)CCN1C(=O)CSC1=O)[C@@H](C)O)[C@@H](C)O)[C@@H](C)CC)C(C)C)C(N)=O)C(=O)O [Compound 51] | 98% | 0.1 to 1 nM | 98% | 0.1 to 1 nM | 65% | 1 to 10 nM | 65% | 1 to 10 nM | –
CCCCCCCCCCCCCCCC(=O)N[C@@H](CCC(=O)NCCCC[C@H](NC(=O)[C@H](CO)NC(=O)[C@@H]1CCCN1C(=O)[C@@H]1CCCN1C(=O)[C@@H]1CCCN1C(=O)[C@H](C)NC(=O)CNC(=O)[C@H](CO)NC(=O)[C@H](CO)NC(=O)[C@@H]1CCCN1C(=O)CNC(=O)CNC(=O)[C@H](C)NC(=O)[C@H](CC(C)C)NC(=O)[C@H](CC(C)C)NC(=O)[C@H](Cc1c[nH]c2ccccc12)NC(=O)[C@H](CC(N)=O)NC(=O)[C@@H](NC(=O)[C@H](Cc1ccccc1)NC(=O)[C@H](CCC(=O)O)NC(=O)C(C)(C)NC(=O)[C@H](C)NC(=O)[C@H](C)NC(=O)[C@H](CCC(N)=O)NC(=O)[C@H](CCCCN)NC(=O)[C@H](CC(=O)O)NC(=O)[C@H](CC(C)C)NC(=O)[C@H](Cc1ccc(O)cc1)NC(=O)[C@@H](NC(=O)[C@H](CO)NC(=O)[C@H](Cc1ccc(O)cc1)NC(=O)[C@H](CC(=O)O)NC(=O)[C@H](CO)NC(=O)[C@@H](NC(=O)[C@H](Cc1ccccc1)NC(=O)[C@@H](NC(=O)CNC(=O)[C@H](CCC(=O)O)NC(=O)CSCC(=O)NCCn1ccccc1=O)[C@@H](C)O)[C@@H](C)O)[C@@H](C)CC)C(C)C)C(N)=O)C(=O)O [Compound 52] | 101% | < 0.1 nM | 101% | < 0.1 nM | 56 to 61% | 1 to 10 nM | 56 to 61% | 1 to 10 nM | –
CCCCCCCCCCCCCCCC(=O)N[C@@H](CCC(=O)NCCCC[C@H](NC(=O)[C@H](CO)NC(=O)[C@@H]1CCCN1C(=O)[C@@H]1CCCN1C(=O)[C@@H]1CCCN1C(=O)[C@H](C)NC(=O)CNC(=O)[C@H](CO)NC(=O)[C@H](CO)NC(=O)[C@@H]1CCCN1C(=O)CNC(=O)CNC(=O)[C@H](C)NC(=O)[C@H](CC(C)C)NC(=O)[C@H](CC(C)C)NC(=O)[C@H](Cc1c[nH]c2ccccc12)NC(=O)[C@H](CC(N)=O)NC(=O)[C@@H](NC(=O)[C@H](Cc1ccccc1)NC(=O)[C@H](CCC(=O)O)NC(=O)C(C)(C)NC(=O)[C@H](C)NC(=O)[C@H](C)NC(=O)[C@H](CCC(N)=O)NC(=O)[C@H](CCCCN)NC(=O)[C@H](CC(=O)O)NC(=O)[C@H](CC(C)C)NC(=O)[C@H](Cc1ccc(O)cc1)NC(=O)[C@@H](NC(=O)[C@H](CO)NC(=O)[C@H](Cc1ccc(O)cc1)NC(=O)[C@H](CC(=O)O)NC(=O)[C@H](CO)NC(=O)[C@@H](NC(=O)[C@H](Cc1ccccc1)NC(=O)[C@@H](NC(=O)CNC(=O)[C@@H](CCC(=O)O)NC(=O)CSCC(=O)NCCN1C(=O)CSC1=O)[C@@H](C)O)[C@@H](C)O)[C@@H](C)CC)C(C)C)C(N)=O)C(=O)O [Compound 53] | 99% | 1 to 10 nM | 99% | 1 to 10 nM | 62% | 1 to 10 nM | 62% | 1 to 10 nM | –
CCCCCCCCCCCCCCCC(=O)N[C@@H](CCC(=O)NCCCC[C@H](NC(=O)[C@H](CO)NC(=O)[C@@H]1CCCN1C(=O)[C@@H]1CCCN1C(=O)[C@@H]1CCCN1C(=O)[C@H](C)NC(=O)CNC(=O)[C@H](CO)NC(=O)[C@H](CO)NC(=O)[C@@H]1CCCN1C(=O)CNC(=O)CNC(=O)[C@H](C)NC(=O)[C@H](CC(C)C)NC(=O)[C@H](CC(C)C)NC(=O)[C@H](Cc1c[nH]c2ccccc12)NC(=O)[C@H](CC(N)=O)NC(=O)[C@@H](NC(=O)[C@H](Cc1ccccc1)NC(=O)[C@H](CCC(=O)O)NC(=O)C(C)(C)NC(=O)[C@H](C)NC(=O)[C@H](C)NC(=O)[C@H](CCC(N)=O)NC(=O)[C@H](CCCCN)NC(=O)[C@H](CC(=O)O)NC(=O)[C@H](CC(C)C)NC(=O)[C@H](Cc1ccc(O)cc1)NC(=O)[C@@H](NC(=O)[C@H](CO)NC(=O)[C@H](Cc1ccc(O)cc1)NC(=O)[C@H](CC(=O)O)NC(=O)[C@H](CO)NC(=O)[C@@H](NC(=O)[C@H](Cc1ccccc1)NC(=O)[C@@H](NC(=O)CNC(=O)[C@H](CCC(=O)O)NC(=O)CSCC(=O)NCCC1=CCCC1)[C@@H](C)O)[C@@H](C)O)[C@@H](C)CC)C(C)C)C(N)=O)C(=O)O [Compound 54] | 107% | < 0.1 nM | 107% | < 0.1 nM | – | – | – | – | 6%
CCCCCCCCCCCCCCCC(=O)N[C@@H](CCC(=O)NCCCC[C@H](NC(=O)[C@H](CO)NC(=O)[C@@H]1CCCN1C(=O)[C@@H]1CCCN1C(=O)[C@@H]1CCCN1C(=O)[C@H](C)NC(=O)CNC(=O)[C@H](CO)NC(=O)[C@H](CO)NC(=O)[C@@H]1CCCN1C(=O)CNC(=O)CNC(=O)[C@H](C)NC(=O)[C@H](CC(C)C)NC(=O)[C@H](CC(C)C)NC(=O)[C@H](Cc1c[nH]c2ccccc12)NC(=O)[C@H](CC(N)=O)NC(=O)[C@@H](NC(=O)[C@H](Cc1ccccc1)NC(=O)[C@H](CCC(=O)O)NC(=O)C(C)(C)NC(=O)[C@H](C)NC(=O)[C@H](C)NC(=O)[C@H](CCC(N)=O)NC(=O)[C@H](CCCCN)NC(=O)[C@H](CC(=O)O)NC(=O)[C@H](CC(C)C)NC(=O)[C@H](Cc1ccc(O)cc1)NC(=O)[C@@H](NC(=O)[C@H](CO)NC(=O)[C@H](Cc1ccc(O)cc1)NC(=O)[C@H](CC(=O)O)NC(=O)[C@H](CO)NC(=O)[C@@H](NC(=O)[C@H](Cc1ccccc1)NC(=O)[C@@H](NC(=O)CNC(=O)[C@H](CCC(=O)O)NC(=O)CSCC(=O)NCCN1C(=O)CCN1C)[C@@H](C)O)[C@@H](C)O)[C@@H](C)CC)C(C)C)C(N)=O)C(=O)O [Compound 55] | 104% | 0.1 to 1 nM | 104% | 0.1 to 1 nM | 47% | 1 to 10 nM | 47% | 1 to 10 nM | –
